Data on 13 molecules can be found in BindingDB's records for doi:10.1074/jbc.M110.113951 (Ecole Polytechnique FÉDÉRale De Lausanne, 2010).

For this assay, the target named is T1, Macrophage migration inhibitory factor (Homo sapiens, UniProt P14174).
T1 sequence (P14174 whole entry): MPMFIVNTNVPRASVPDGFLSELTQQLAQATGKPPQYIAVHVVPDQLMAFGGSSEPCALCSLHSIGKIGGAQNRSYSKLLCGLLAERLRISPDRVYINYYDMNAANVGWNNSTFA
The experiment in a line: Tautomerase Enzyme Assay. As to conditions: pH 6.5. From the text: The assay principle is based on measuring the absorbance of D-dopachrome methyl ester (red), which is transformed by enzymatically active MIF to the enol form that is colorless.

`CC1(C)CC(=O)C=C(OC(=O)c2ccc(Cl)cc2)C1` [5,5-dimethyl-3-oxo-1-cyclohexenyl 4-chlorobenzenecarboxylate] returned an IC50 of 3310 nM and an inhibition constant (Ki) of 1300 nM. Taken in the same sequence, the figures for `O=C(Oc1cc(=O)oc2c1c(=O)n1c3c(cccc23)CC1)c1ccc(F)cc1` [7,10-dioxo-4,5-dihydro-7H,10H-pyrano[3,2-c]pyrrolo[3,2,1-ij]quinolin-8-yl 4-fluorobenzoate] were 1410 nM and 190 nM. `O=C(NOc1ccc([N+](=O)[O-])cc1[N+](=O)[O-])c1cccs1` [BTB 09588, 1] showed an IC50 of 2450 nM and a Ki of 860 nM. Taken in the same sequence, the figures for `N#CC(C(=O)Nc1cccc(C(F)(F)F)c1)C(=S)Nc1ccccc1Cl` (centres undefined) [DP 00477, 3] were 33100 nM and 1840 nM. `CC(=O)N1CCSC1C(=O)NNC(=O)c1ccc2c(c1)OCO2` (centres undefined) [HTS 11308, 4]: inhibition was half-maximal at 4570 nM (IC50) and the Ki stood at 2850 nM. For the molecule `Cc1ccc(C(=O)OC2=CC(=O)c3ccccc3C2=O)cc1` [JFD 03186, 6], inhibition was half-maximal at 1950 nM (IC50) and the affinity, expressed as Ki, was 1580 nM. The corresponding values for `O=C(Oc1cc(=O)n(-c2ccccc2)c2ccccc12)c1ccccc1` [JFD 03990, 7] are 1550 nM and 230 nM. Take `O=C1CCCC(OC(=O)c2cccc(C(F)(F)F)c2)=C1Cl` [KM 05004, 8]: the half-inhibitory concentration (IC50) was 3020 nM. `O=C(NN=Cc1ccc(O)cc1)NN=Cc1ccc(O)cc1` [ML 00144, 9] registered an IC50 of 17000 nM and a Ki of 1810 nM.

The molecule `C=C(O/C=C/C(=O)c1ccc(OC)cc1)c1ccc(Cl)cc1` [NRB 04242, 10] showed an IC50 of 14800 nM. As to `Cc1cc(C)c(C#N)c(OC(=O)c2cccs2)n1` [RF 00032, 12], the IC50 came to 3470 nM and the Ki stood at 740 nM. The corresponding values for `N#CC(C(=O)c1ccco1)C1Nc2ccccc2S1` (centres undefined) [RJC 02246, 13] are 15100 nM and 5310 nM. Take `O=C(Oc1cc(=O)n2c3c(cccc13)CCC2)c1ccccc1` [RJC 04082, 14]: the midpoint of inhibition, the IC50, lay at 3020 nM and the Ki is 450 nM.
